The text below walks through data of patent publication US4855497A, “Novel diamine derivatives” (Chugai Seiyaku Kabushiki Kaisha, priority 1985, dated 1989).

Series [1] concerns Blood Sugar Level. Description: Effect on blood sugar level. The format is in vivo, SD/Slc male rats. As to conditions: starved overnight. The protocol:
Effect on Blood Sugar Level
After starving SD/Slc male rats (body weight, 250 g; 6 animals per group) overnight, 20-μl blood samples were drawn from the tail vein of each rat while it was not anesthetized. Records were taken of the sugar level in each blood sample. A selected compound of the present invention was suspended in 3% gum arabic and the suspension was administered perorally to each rat in an amount of 50 or 200 mg/kg. At 2, 4 and 6 hours of the administration, blood samples were taken and their blood sugar levels were measured. Measurements of blood sugar levels were conducted with a New Blood Sugar Test (Boehringer, Mannheim).
To the control group, a 3% gum arabic solution was administered, and diisopyramide was administered as a comparative drug.

Series [2] has as its system Acetylcholine. As to the kind of experiment: Activity against acetylcholine (II): inhibition of acetylcholine-induced saliva excretion. It is filed as in vivo, Beagle dogs. The settings on record: dose 100 (g), intra-arterially, 1 min before acetylcholine. As to the method:
Activity Against Acetylcholine (II)
Beagle dogs were anesthetized by intravenous administration of pentobarbital (35 mg/kg). The following experiment was conducted in accordance with the method of Sato et al. (Tohoku J. Exp. Med., 108, 377-388, 1982). The left lower jaw of each animal was incised to identify the submandibular gland, the duct through which saliva was excreted from that gland, and the artery nourishing the same gland. A polyethylene tube was first inserted into the excretory duct. Then, a cannula was inserted into the submandibular gland controlling artery and said gland was perfused with the arterial blood drawn from the femoral artery. The tube from the duct was connected to a drop counter and the number of drops of excreted saliva was recorded. The excretion of saliva was induced by intra-arterial administration of acetylcholine.
One minute before the acetylcholine administration, […] (0.1 ml) of a selected compound was administered intra-arterially and its ability to inhibit saliva excretion was examined.

In series [3] the test system is Chloroform-Induced Arrythmia. As to the kind of experiment: Activity against chloroform-induced arrythmia in rats (prevention of ventricular fibrillation). It is filed as in vivo, Sprague-Dowley male rats. As to conditions: for Percent prevention (ventricular fibrillation), starved: starved rats. As to the method: Activity Aganist Chloroform-Induced Arrythmia in Rats
The following procedures were substantially in accordance with the method of Erker and Baker (Arch. Int. Pharmacodyn., 243, 97-102, 1980). Aminophylline (20 mg/kg) was injected intramuscularly into two groups of Sprague-Dowley male rats (3-4 wk. old, 7 animals per group) weighing about 100 g on average, one group having been starved for 24 hours and the other group not starved. Thirty minutes after the injection, the animals were put into a 4,000-ml glass beaker with a lid that contained gauze impregnated with […] of chloroform. Fifty minutes later, the animals were recovered from the beaker and their chests were incised to check their hearts for the presence of ventricular fibrillation. The features of their cardiac rhythm were examined by the electrocardiogram. When no distinct fibrillation was observed, the heart was touched with tweezers. The heart was identified as fibrillar when rapid irregular twitchings occured on the surface of ventricles and continued for at least 5 seconds after chest incision or mechanical stimulation.
Selected compounds suspended in 3% gum arabic were administered in various doses to the rats either intraperitoneally (i.P.) or perorally (P.O.) 30 minutes prior to treatment with chloroform. The percent prevention of ventricular fibrillation was determined for each rat. Only a 3% gum arabic solution was administered to the control group.

Series [4] has as its system Aconitine-Induced Arrythmia. As to the kind of experiment: Activity against aconitine-induced arrythmia in rats. It is filed as in vivo, Sprague-Dowley male rats. The settings on record: aconitine 1 μg/kg/min; for Time required for ventricular extrasystole to occur: untreated 14.3 min; for Time required for ventricular fibrillation to occur: untreated 35.3 min. As to the method:
Activity Against Aconitine-Induced Arrythmia in Rats
Using Sprague-Dowley male rats (9-10 wk. old, two animals per group) weighing about 350 g on average, the following experiment was conducted substantially in compliance with the method of Vargftig et al. (Europ. J. Pharmacol., 6, 49, 1969).
The animals were anesthetized by intraperitoneal administration of 1 g/kg of urethane. A polyethylene cannula was inserted into both the femoral artery and vein of each animal; the drug was administered through the femoral vein while the blood pressure was measured at the femoral artery.
While the aconitine solution was continuously infused into the vein at a rate of 1 μg/kg/min, a selected compound was administered intravenously at 5-minute intervals. In order to prevent the aconitine-induced dyspnea from interfering with the experimental results, 0.2 mg/kg of d-tubocurarine was administered intravenously to each animal, which then was subjected to artificial respiration through a cannula inserted into the trachea (80 breathings/min, with 4 ml of air supplied by a single ventillation).
Identification of arrythmia was made by the ECG in the second induction period; the appearance of a QRS complex with sharply downward deflections was used as an indication of ventricular arrythmia and observation was continued until ventricular fibrillation appeared. The results are shown in Table 3 in terms of the times required for ventricular extrasystole and ventricular fibrillation to occur.

For series [5], the system named is Ouabain-Induced Arrythmia. Description: Activity against ouabain-induced arrythmia in guinea pigs. As to conditions: ouabain 5 μg/kg/min; for Time required for ventricular extrasystole to occur: untreated 28.5 min; for Time required for ventricular fibrillation to occur: untreated 35.1 min; for Time required for cardiac arrest to occur: untreated 41.2 min. It is filed as in vivo, Hartly male guinea pigs. The protocol:
Activity Against Ouabain-Induced Arrythmia in Guinea Pigs
Hartly male guinea pigs (5-6 wk. old, two animals per group) weighing about 350 g on average were anesthetized by intraperitoneal administration of 1.2 g/kg of urethane. A polyethylene cannula was inserted into both the cervical vein and the carotid artery; the drug was administered through the cervical vein while the blood pressure was measured at the carotid artery. A selected test compound was administered 5 minutes before the sustained intravenous infusion of the ouabain solution (5 μg/kg/min) as described in J. Pharmacol. Exp. Ther., 136, 227, 1962). Identification of arrythmia was made by the ECG in the second induction period; the appearance of a QRS complex with sharply downward deflictions was used as an indication of ventricular arrythmia and observation was continued until ventricular fibrillation and cardiac arrest appeared. The results are shown in Table 4 in terms of the times required for ventricular extrasystole, ventricular fibrillation and cardiac arrest to occur.

In series [6] the test system is Acetylcholine. Description: Activity against acetylcholine (I): inhibition of acetylcholine-induced contraction of isolated ilea. The settings on record: 10^-4 M; 10^-6 M acetylcholine; isolated rat ilea. Set-up: species or system SD/Slc male rats. As to the method: Activity Against Acetylcholine (I)
SD/Slc male rats (10-mo. old, four animals per group) were clubbed dead and their ilea were immediately extracted. The ilea were suspended under a load of 1 g in a Krebs-Henseleit solution oxygenated with a mixture of 95% O2 +5% CO2 at 27° C., and the ileal reaction was measured isotonically.
The anti-cholinergic activity of each of the compounds tested was determined in terms of percent inhibition against the contractive reaction of 10^-6 M of acetylcholine (causing 60-70% of the maximum contractive reaction of acetylcholine).

For series [7] the following is noted: cited from earlier work.
The test system of series [8] is sleeping induced by hexobarbital. Description: Effect on the time of sleeping induced by hexobarbital. It is filed as in vivo, ddY/Slc male rats. As to conditions: H3PO4 salt, untreated 53.9 ± 2.7. As to the method:
Effect on the Time of Sleeping Induced by Hexobarbital
A selected compound of the present invention was administered perorally to ddY/Slc male rats (5-6 wk. old, 10 animals per group) in an amount of 50 or 100 mg/kg. One hour later, […] of hexobarbital was administered intraperitoneally to each animal, thereby causing the loss of orthogonal reflex. The time required for the recovery of orthogonal reflex was measured for each animal.
As comparative drugs, 50 or 100 mg/kg of disopyramide and 5 mg/kg of diazepam were administered perorally.

In the case of `Cc1cccc(C)c1NC(=O)CCNCCN(C(C)C)C(C)C` [Compound No. 1, 3-(diisopropylaminoethylamino)-2',6'-dimethylpropionanilide], in series [1] (50 mg/kg perorally), the “Blood sugar level, 0 hr (mean ± S.E.)” value came to 68.4 ± 4.0 mg/dL; the “Blood sugar level, 2 hr (mean ± S.E.)” value amounted to 63.0 ± 4.1 mg/dL; the “Blood sugar level, 4 hr (mean ± S.E.)” value was determined as 58.1 ± 2.2 mg/dL; the “Blood sugar level, 6 hr (mean ± S.E.)” value was determined as 59.9 ± 2.6 mg/dL. In series [1] (200 mg/kg perorally), the “Blood sugar level, 0 hr (mean ± S.E.)” value was found to be 83.7 ± 3.0 mg/dL; the “Blood sugar level, 2 hr (mean ± S.E.)” value amounted to 55.4 ± 5.7 mg/dL; the “Blood sugar level, 4 hr (mean ± S.E.)” value stood at 73.4 ± 7.2 mg/dL; the “Blood sugar level, 6 hr (mean ± S.E.)” value is 71.2 ± 3.2 mg/dL. Besides, in series [2], the “Percent inhibition (saliva excretion)” value is 0%. Further, the responders at 25 mg/kg in series [3] (Rattus norvegicus, ip, 0.5 h, not starved rats, 25 mg/kg i.P., 30 min prior to chloroform, read-out: Percent prevention (ventricular fibrillation), not starved) came out at 85.7%. Moreover, the responders at 1 mg/kg in series [3] (Rattus norvegicus, po, 0.5 h, not starved rats, 1 mg/kg P.O., 30 min prior to chloroform, read-out: Percent prevention (ventricular fibrillation), not starved) turned out to be 85.7%. Also, the “Percent prevention (ventricular fibrillation), starved” value in series [3] (1 mg/kg P.O., 30 min prior to chloroform) came out at 85.7%. Besides, in series [4] (5 mg/kg intravenously), the “Time required for ventricular extrasystole to occur” value stood at 45.2 min and the “Time required for ventricular fibrillation to occur” value is on record as > 120.0 min. In series [5] (5 mg/kg via cervical vein), the “Time required for ventricular extrasystole to occur” value stood at 42.1 min, the “Time required for ventricular fibrillation to occur” value came to 45.4 min and the “Time required for cardiac arrest to occur” value stood at 51.3 min. In addition, the “Percent inhibition (contractive reaction of acetylcholine)” value in series [6] is recorded as 20%.
For the compound `CC(C)N(CCC(C(N)=O)(c1ccccc1)c1ccccn1)C(C)C` (centres unmarked) [Disopyramide, reference compound], in series [1] (50 mg/kg perorally), the “Blood sugar level, 0 hr (mean ± S.E.)” value is 75.2 ± 5.9 mg/dL; the “Blood sugar level, 2 hr (mean ± S.E.)” value was found to be 46.9 ± 1.7 mg/dL; the “Blood sugar level, 4 hr (mean ± S.E.)” value amounted to 41.9 ± 2.9 mg/dL; the “Blood sugar level, 6 hr (mean ± S.E.)” value is 45.8 ± 2.0 mg/dL. Further, in series [1] (200 mg/kg perorally), the “Blood sugar level, 0 hr (mean ± S.E.)” value was 64.5 ± 5.6 mg/dL; the “Blood sugar level, 2 hr (mean ± S.E.)” value was found to be 41.7 ± 3.1 mg/dL; the “Blood sugar level, 4 hr (mean ± S.E.)” value turned out to be 29.7 ± 3.2 mg/dL; the “Blood sugar level, 6 hr (mean ± S.E.)” value stood at 36.9 ± 2.6 mg/dL. The “Percent inhibition (saliva excretion)” value in series [2] is on record as 41.7%. The “action on the cardiac muscles” value in series [7] (clinical) was “inhibitory action on the cardiac muscles”. The undesirable side effects entry in series [7] (clinical, presumably from anti-cholinergic action) was “hydrodipsia, anuresis, constipation, vertigo, blurring of vision and vomiting”. For the same compound, in series [7] (patients with prostatomegaly and neurotic bladders due to diabetes), the incidence of anuresis entry was “High incidence of anuresis”. Further, the “activity in peroral administration” value in series [7] (peroral, clinical) is “sustained activity”. Also, the responders at 10 mg/kg in series [3] (Rattus norvegicus, po, 0.5 h, read-out: Percent prevention (ventricular fibrillation), not starved) turned out to be 37.6%. The “Percent prevention (ventricular fibrillation), starved” value in series [3] (10 mg/kg P.O., 30 min prior to chloroform) came out at 49.6%. In series [4] (10 mg/kg intravenously), the “Time required for ventricular extrasystole to occur” value stood at 22.6 min and the “Time required for ventricular fibrillation to occur” value was 78.2 min. Further, the “Time of sleeping (mean ± S.E.)” value in series [8] (50 mg/kg perorally) was determined as 59.8 ± 3.3 min. The “Time of sleeping (mean ± S.E.)” value in series [8] (100 mg/kg perorally) was determined as 53.5 ± 2.4 min. In series [5] (10 mg/kg via cervical vein), the “Time required for ventricular extrasystole to occur” value was 41.1 min, the “Time required for ventricular fibrillation to occur” value is 54.3 min and the “Time required for cardiac arrest to occur” value came to 59.6 min. The “Percent inhibition (contractive reaction of acetylcholine)” value in series [6] is 89%.
